Data: PMC7466753, “An epoxide hydrolase from endophytic Streptomyces shows unique structural features and wide biocatalytic activity” (Acta Crystallographica. Section D, Structural Biology, 2020)

Legend:
B1EPH2 = target: T1, B1EPH2 (Streptomyces sp. CBMAI 2042, UniProt A0ACD6BAW7); test: adrenaline test (periodate back-titration, […] nm); assay type: biochemical; conditions: pH 6.0 sodium phosphate; racemic substrate in DMSO
T1 construct: gene STAN_0072; ORF in pET-29b(+), E. coli BL21(DE3), nickel IMAC and gel filtration; protomer 37 kDa, hexamer (252 kDa by gel filtration)

[1] = target: the molecule itself; test: crystal structure; X-ray, 2.2 Å, space group P4(1)22; hanging drop, 0.1 M sodium cacodylate pH 6.5, 1 M trisodium citrate, protein 12.5 mg/ml in 50 mM HEPES pH 8.0, 300 mM NaCl; three protomers in the asymmetric unit, hexamer by twofold crystallographic symmetry

Molecule	% conversion relative to 1,2-cyclohexanediol (B1EPH2)	stoichiometry N [1]
c1ccc(OCC2CO2)cc1 (racemic) [compound 3, phenyl glycidyl ether]	25%	
B1EPH2, α/β-epoxide hydrolase from Streptomyces sp. CBMAI 2042 (enzyme, B1EPH2, putative α/β-epoxide hydrolase of Streptomyces sp; CBMAI 2042; the text says 344 amino acids; the b1eph2 ORF was amplified from genomic DNA and cloned into pET-29b(+) (plasmid pGTEPH2); Hexamer by the crystal structure (three protomers in the asymmetric unit, twofold crystallographic symmetry) and by analytical gel filtration; they are surmised from pET-29b(+) and the nickel column; also …) VPQPPTDDPTTPAEKGAVHRLVDTPGGRIHLVEQGTGPLVLLVHGFPESWYSWRHQLPALAAAGYRAAAIDVRGYGRSAKPAATDAYRMLAHVADNTAVVHALGEETATVVGHDWGSPIAANSALLRPDVFTAVGLLSVPYAPRGEHRPTDGFARIGGDEEFYVSYFQAPGRAEAEIERDVRGWLAGFYTGLTGGALTPEEHGRLFFVPPGAHLADRFPTGPLPAWLTEADLDVYSGEFERSGLTGALNRYRNVDRDWEDLAAWHGAPITQPSLFIGGALDASTTWMADALDAYPATLPGLSAAHILEGCGHWIQQERPDEVNRLLTQWLDGLR		6
